The record followed here is ChEMBL document CHEMBL1158924, “Cytotoxic constituents of the bark of Plumeria rubra collected in Indonesia” (1990).

≈ marks a conversion by molar mass, not a printed value.

Assay type in all cases: functional
In one assay the test system is HT-1080. Put plainly: Cytotoxicity against human HT1080 cells. The settings on record: read-out: ED50 (the source's name).
The nature of assay [1]: Cytotoxicity against human melanoma cells. The settings on record: Melanoma cell, read-out: ED50 (the source's name).
A short description of assay [2]: Cytotoxicity against human breast cancer cells. To be noted: Cancer cell lines, read-out: ED50 (the source's name).
Assay [3] in a line: Cytotoxicity against human lung cancer cells. The settings on record: Cancer cell lines, read-out: ED50 (the source's name).
Assay [4] in a line: Cytotoxicity against human colon cancer cells. To be noted: Cancer cell lines, read-out: ED50 (the source's name).
For a further assay, the system named is KB. In words: Cytotoxicity against human KB cells. To be noted: read-out: ED50 (the source's name).
The subject of a further assay is P388. In words: Cytotoxicity against mouse P388 cells. The settings on record: read-out: ED50 (the source's name).

In the case of `C[C@H](O)C1=C[C@@]2(C=C[C@@H]3C(C(=O)O)=CO[C@@H](O[C@@H]4O[C@H](CO)[C@@H](O)[C@H](O)[C@H]4O)[C@@H]32)OC1=O`, the EC50 (in the assay with HT-1080; in assay [1]; in assay [2]; in assay [3]; in assay [4]; in the assay on KB) was > 50 µg/mL in each case. Besides, in the assay with P388, the EC50 is > 50 µg/mL.

Turning to `COC1=CC(=O)C(OC)=CC1=O`, the EC50 came to 3.4 µg/mL (≈ 20.2 µM) in the assay with HT-1080; 2.7 µg/mL (≈ 16.1 µM) in assay [1]; 5.2 µg/mL (≈ 30.9 µM) in assay [2]; 1.3 µg/mL (≈ 7.73 µM) in assay [3]; 1.4 µg/mL (≈ 8.33 µM) in assay [4]; 3.8 µg/mL (≈ 22.6 µM) in the assay with KB. In addition, in the assay on P388, the EC50 turned out to be 2.5 µg/mL (≈ 14.9 µM).

Turning to `COC(=O)C1=CO[C@@H](O[C@@H]2O[C@H](CO)[C@@H](O)[C@H](O)[C@H]2O)[C@H]2[C@@H]1C=C[C@@]21C=C([C@H](C)OC(=O)/C=C/c2ccc(O)cc2)C(=O)O1`, the EC50 (with HT-1080; in assay [1]; in assay [2]; in assay [3]; in assay [4]; in the assay on KB) was > 50 µg/mL throughout. Moreover, in the assay on P388, the EC50 was > 50 µg/mL.

On to `COC(=O)[C@@H]1CO[C@H](O)[C@H]2[C@@H]1C=C[C@@]21C=C([C@H](C)O)C(=O)O1`, for which the EC50 (in the assay on HT-1080; in assay [1]; in assay [2]; in assay [3]; in assay [4]; in the assay on KB) was > 50 µg/mL each time. In the assay with P388, the EC50 is > 50 µg/mL.

In the case of `COC(=O)[C@@H]1CO[C@@H](O)[C@H]2[C@@H]1C=C[C@@]21C=C([C@H](C)O)C(=O)O1`, the EC50 (in the assay on HT-1080; in assay [1]; in assay [2]; in assay [3]; in assay [4]; in the assay with KB) was > 50 µg/mL each time. For the same compound, the EC50 in the assay with P388 was > 50 µg/mL.

Take `C/C=C1/C(=O)O[C@@]23C=C[C@H]4[C@@H](C(=O)OC)[C@H](O)O[C@@H](O[C@H]12)[C@H]43` [ALLAMANDIN]: the EC50 was 0.8 µg/mL (≈ 2.59 µM) in the assay on HT-1080; 0.3 µg/mL (≈ 0.973 µM) in assay [1]; 0.4 µg/mL (≈ 1.3 µM) in assay [2]; 0.7 µg/mL (≈ 2.27 µM) in assay [3]; 0.3 µg/mL (≈ 0.973 µM) in assay [4]; 0.4 µg/mL (≈ 1.3 µM) in the assay with KB. Also, the EC50 with P388 is 0.2 µg/mL (≈ 0.649 µM).

Consider `C/C=C1/C(=O)O[C@@]23C=C[C@H]4C[C@H](O)O[C@@H](O[C@H]12)[C@H]43` [ALLAMCIN], for which the EC50 with HT-1080 is 3.1 µg/mL (≈ 12.4 µM); in assay [1], 0.9 µg/mL (≈ 3.6 µM); in assay [2], 0.1 µg/mL (≈ 0.4 µM); in assay [3], 1.2 µg/mL (≈ 4.8 µM); in assay [4], 0.3 µg/mL (≈ 1.2 µM); with KB, 0.3 µg/mL (≈ 1.2 µM). Besides, the EC50 in the assay with P388 was found to be 0.2 µg/mL (≈ 0.799 µM).

Consider `C/C=C/C=C1\C=Cc2c(C(=O)OC)coc(=O)c21` [FULVOPLUMIERIN], for which the EC50 in the assay with HT-1080 is 3.4 µg/mL (≈ 13.9 µM); in assay [1] it was 0.7 µg/mL (≈ 2.87 µM); in assay [2] it was 3.5 µg/mL (≈ 14.3 µM); in assay [3], 3 µg/mL (≈ 12.3 µM); in assay [4], 1.3 µg/mL (≈ 5.32 µM); in the assay on KB, 4.6 µg/mL (≈ 18.8 µM). In addition, the EC50 in the assay with P388 came to 2.5 µg/mL (≈ 10.2 µM).

For `COc1cc([C@H]2OC[C@H]3[C@@H]2CO[C@@H]3c2cc(OC)c(O[C@@H]3O[C@H](CO)[C@@H](O)[C@H](O)[C@H]3O)c(OC)c2)cc(OC)c1O[C@@H]1O[C@H](CO)[C@@H](O)[C@H](O)[C@H]1O` [LIRIODENDRIN], the EC50 in the assay on HT-1080 was found to be 8.9 µg/mL (≈ 12 µM); in assay [1], 19 µg/mL (≈ 25.6 µM); in assay [2], 30 µg/mL (≈ 40.4 µM); in assay [3], 6 µg/mL (≈ 8.08 µM); in assay [4], 16 µg/mL (≈ 21.5 µM); in the assay with KB, 6 µg/mL (≈ 8.08 µM). Moreover, the EC50 with P388 was determined as 2.4 µg/mL (≈ 3.23 µM).

In the case of `C/C=C1/C(=O)O[C@]23C=C[C@@H]4C(C(=O)OC)=CO[C@H](O[C@@H]12)[C@@H]43` [PLUMERICIN], the EC50 in the assay with HT-1080 worked out at 0.2 µg/mL (≈ 0.689 µM); in assay [1] it was 2.8 µg/mL (≈ 9.65 µM); in assay [2] it was 0.4 µg/mL (≈ 1.38 µM); in assay [3], 0.2 µg/mL (≈ 0.689 µM); in assay [4] it was 0.1 µg/mL (≈ 0.345 µM); in the assay with KB it was 0.3 µg/mL (≈ 1.03 µM). For the same compound, in the assay with P388, the EC50 was 1.2 µg/mL (≈ 4.13 µM).

Regarding `COC(=O)C1=CO[C@@H](O[C@@H]2O[C@H](CO)[C@@H](O)[C@H](O)[C@H]2O)[C@H]2[C@@H]1C=C[C@@]21C=C([C@H](C)O)C(=O)O1` [PLUMIERIDE], the EC50 (in the assay on HT-1080; in assay [1]; in assay [2]; in assay [3]; in assay [4]; with KB) was > 50 µg/mL each time. Moreover, in the assay on P388, the EC50 is > 50 µg/mL.
